Results as given in patent US10758609B2, “Cross-reactive T-cell epitopes of HIV, SIV, and FIV for vaccines in humans and cats” (priority 2015, dated 2020).
Residues, ends and D or L forms follow the SMILES beside them.

Columns and labels:
[1] = tested on: CD4^+ T cells from HIV^+ subjects; details: HIV+ human subjects; for CyCD4: CD4+ T-cell cytolysin/cytotoxins (perforin, GrzA & B), frequency of responders: HIV-1 epitope peptide, threshold ≥0.2%; for CyCD4 (cytolysin and cytotoxin production of CD4+ T cells), frequency of responders: HIV-1 peptides
Protocol: (§1) The overlapping peptide pools of FIV and HIV-1 structural and enzyme proteins were used to stimulate the […] (PBMC) and the T cells from HIV^+ subjects as previously described for epitope mapping of HIV-1 and FIV p24 and reverse transcriptase (RT) (Sanou et al., 2013; Roff et al., 2015). The individual peptides in those peptide pools with positive responses to either interferon-γ (IFNγ) production and/or T-cell proliferation were determined with IFNγ ELISpot analysis and CFSE-based CD3^+CD4^+ and CD3^+CD8^+ T-cell proliferation analyses followed by the FACS-based intracellular staining (ICS) for cytolysin (perforin) and cytotoxin (granzyme A [GrzA] and GrzB) (Sanou et al., 2013; Roff et al., 2015). Besides viral p24 and RT proteins, the identical approach was used to identify anti-HIV/FIV T-cell epitopes on viral matrix (MA), nucleocapsid (NC), protease (PR), RNAase, integrase (IN), surface envelope (SU Env), and transmembrane envelope (TM Env) (FIG. 12).
(§2) Since our goal is to develop HIV vaccine for human use, the HIV peptides (Table 10) counterpart of the cross-reactive FIV peptides shown in Table 9 were tested with PBMC and T cells from HIV^+ subjects. The immune functions analyzed were human IFNγ production by ELISpot, cytolysin/cytotoxin production by ICS, and CFSE-based proliferation of CD3^+CD4^+ and CD3^+CD8^+ T cells from HIV^+ subjects (Table 10, the first set of results). In addition, the Los Alamos National Laboratories (LANL) database was used to identify the HLA allele(s) of the HIV epitope sequence with CTL activity that can exist within the sequence of the conserved counterpart HIV peptide (Table 9, LANL CTL). The bold HLA class-I supertypes and the bold 2-digit alleles are those on the “Optimal CD8^+ CTL Epitopes” list and those without bold are alleles for potential CTL epitope. […] The HLA class II such as HLA-DRB1 has yet to be fully classified into supertypes, and therefore the 4-digit resolution nomenclatures for the HLA-DRB1 alleles are shown.
(§3) The counterpart HIV-1 peptides of the FIV peptides were also tested for immunogenicity using PBMC and T cells from HIV^+ human subjects. […] The HRT7-1 and HRT7-2 were also tested with cells from HIV^+ subjects on ART. The threshold for positive IFNγ ELISpot response is ≥75 spot-forming units (SFU) per 10^6 PBMC. The threshold for CFSE-based CD4^+ (CD4^+ T) and CD8^+ (CD8^+ T) T-cell proliferation is ≥2% CD4^+ T-cell CFSE^low or CD8^+ T-cell CFSE^low. The threshold of intracellular cytokine staining (ICS) of FACS-based cytolysin (perforin) and cytotoxins (granzymes A and B) in CD4^+ T cells (CyCD4) and CD8^+ T cells (CyCD8) is ≥0.2%. […] The nine HIV-1 peptides in black are the counterpart FIV peptides used in the current MAP vaccine trial, whereas the 13 peptides in blue were not.

[2] = tested on: CD8^+ T cells from HIV^+ subjects; assay: FACS-based intracellular staining (ICS) for cytolysin (perforin) and cytotoxins (GrzA, GrzB) in CD8+ T cells; details: HIV-1 epitope peptide; HIV+ human subjects; threshold ≥0.2%
Protocol: as §1, §2
The threshold for positive IFNγ and IL2 ELISpot responses is ≥50 spot-forming units (SFU) per 10^6 PBMC. The threshold for CFSE-based CD4^+ and CD8^+ T-cell proliferation is ≥2% CD4^+ T-cell CFSE^low or CD8^+ T-cell CFSE^low. The threshold of FACS-based intracellular cytokine staining (ICS) is ≥0.2%. […] The nine FIV peptides in black were used in the current MAP vaccine trial, whereas the 13 peptides in blue were not used. […] The MAPs and their corresponding peptide(s) were also tested for their ability to enhance or suppress in vitro FIV infection of feline PBMC (E/S of peptides and E/S of MAP).
as §3

`CC(C)[C@H](NC(=O)CNC(=O)[C@H](CO)NC(=O)[C@H](CCCNC(=N)N)NC(=O)[C@H](Cc1ccccc1)NC(=O)[C@H](CO)NC(=O)[C@H](CCC(=O)O)NC(=O)[C@H](CCC(=O)O)NC(=O)[C@@H]1CCCN1C(=O)[C@@H]1CCCN1C(=O)[C@H](C)NC(=O)[C@@H](N)[C@@H](C)O)C(=O)N[C@@H](CCC(=O)O)C(=O)N[C@H](C(=O)N[C@H](C(=O)N[C@H](C(=O)O)[C@@H](C)O)[C@@H](C)O)[C@@H](C)O` [HNC2] (H-TAPPEESFRSGVETTT-OH; N-terminus and C-terminus assumed) was tested. Which “CyCD4: CD4+ T-cell cytolysin/cytotoxins (perforin, GrzA & B), frequency of responders” value (shortened to “CyCD4: CD4+ T-cell cytolysin/cytotoxins”) [1] did it give?
The value was “− (0%-1.4% (−))”.

What about the “CyCD8: CD8+ T-cell cytolysin/cytotoxins (perforin, GrzA & B), frequency of responders” value (“CyCD8: CD8+ T-cell cytolysin/cytotoxins” for short) [2] of the same compound?
Its value is “+ (12.5%-25% (+))”.

For `CSCC[C@H](NC(=O)[C@@H](NC(=O)[C@H](CC(N)=O)NC(=O)[C@H](CC(C)C)NC(=O)[C@H](CC(=O)O)NC(=O)[C@H](CCC(N)=O)NC(=O)[C@@H]1CCCN1)[C@@H](C)O)C(=O)N[C@@H](CC(C)C)C(=O)N[C@@H](CC(N)=O)C(=O)N[C@H](C(=O)N[C@H](C(=O)NCC(=O)NCC(=O)N[C@@H](Cc1c[nH]cn1)C(=O)N[C@@H](CCC(N)=O)C(=O)O)C(C)C)[C@@H](C)O` [Hp4-3] (H-PQDLNTMLNTVGGHQ-OH; N-terminus and C-terminus assumed), which “CyCD4: CD4+ T-cell cytolysin/cytotoxins” value [1] is on record?
Its value is “− (0%-1.4% (−))”.

What about the “CyCD8: CD8+ T-cell cytolysin/cytotoxins” value [2] of the same compound?
The value was “++ (25.1%-40% (++))”.

How did the “CyCD4: CD4+ T-cell cytolysin/cytotoxins” value [1] turn out when `CC[C@H](C)[C@H](NC(=O)CNC(=O)[C@H](CC(C)C)NC(=O)[C@H](CC(C)C)NC(=O)[C@H](CCC(N)=O)NC(=O)[C@H](CCC(N)=O)NC(=O)[C@H](CC(=O)O)NC(=O)[C@H](CCCCN)NC(=O)[C@H](CC(C)C)NC(=O)[C@@H](N)Cc1ccc(O)cc1)C(=O)N[C@@H](Cc1c[nH]c2ccccc12)C(=O)NCC(=O)N[C@@H](CS)C(=O)O` [HTM4-3] (H-YLKDQQLLGIWGC-OH; N-terminus and C-terminus assumed) was run?
The value was “− (0%-1.4% (−))”.

What about the “CyCD8: CD8+ T-cell cytolysin/cytotoxins” value [2] of the same compound?
The value was “+ (12.5%-25% (+))”.

With `CSCC[C@H](NC(=O)[C@H](Cc1c[nH]c2ccccc12)NC(=O)[C@H](CC(N)=O)NC(=O)[C@H](CCCCN)NC(=O)[C@@H](NC(=O)[C@H](CCC(=O)O)NC(=O)[C@H](CCC(N)=O)NC(=O)[C@H](CO)NC(=O)[C@H](C)N)C(C)C)C(=O)N[C@H](C(=O)N[C@@H](CCC(=O)O)C(=O)N[C@H](C(=O)N[C@@H](CC(C)C)C(=O)N[C@@H](CC(C)C)C(=O)N[C@H](C(=O)O)C(C)C)[C@@H](C)O)[C@@H](C)O` [Hp14-2(15-2)] (H-ASQEVKNWMTETLLV-OH; N-terminus and C-terminus assumed) as the compound, how does the “CyCD4 (cytolysin and cytotoxin production of CD4+ T cells), frequency of responders” value [1] read?
The value was “++++ (>54% (++++))”.

How did the “CyCD4: CD4+ T-cell cytolysin/cytotoxins” value [1] turn out when `CC(C)C[C@H](NC(=O)[C@H](C)NC(=O)[C@@H](N)CCC(=O)O)C(=O)N[C@@H](CC(C)C)C(=O)N[C@@H](CC(=O)O)C(=O)N[C@H](C(=O)NCC(=O)N[C@@H](C)C(=O)N[C@@H](CC(=O)O)C(=O)N[C@@H](CC(=O)O)C(=O)N[C@H](C(=O)N[C@H](C(=O)N[C@@H](CC(C)C)C(=O)N[C@@H](CCC(=O)O)C(=O)O)C(C)C)[C@@H](C)O)[C@@H](C)O` [HPR2] (H-EALLDTGADDTVLE-OH; N-terminus and C-terminus assumed) was run?
The value was “− (0%-1.4% (−))”.

And the “CyCD8: CD8+ T-cell cytolysin/cytotoxins” value [2]?
Its value is “− (0%-1.4% (−))”.

How did the “CyCD4 (cytolysin and cytotoxin production of CD4+ T cells), frequency of responders” value [1] turn out when `CSCC[C@H](NC(=O)[C@H](Cc1c[nH]c2ccccc12)NC(=O)[C@H](CC(N)=O)NC(=O)[C@H](CCCCN)NC(=O)[C@@H](N)C(C)C)C(=O)N[C@H](C(=O)N[C@@H](CCC(=O)O)C(=O)N[C@H](C(=O)N[C@@H](CC(C)C)C(=O)N[C@@H](CC(C)C)C(=O)N[C@H](C(=O)N[C@@H](CCC(N)=O)C(=O)N[C@@H](CC(N)=O)C(=O)N[C@@H](C)C(=O)N[C@@H](CC(N)=O)C(=O)O)C(C)C)[C@@H](C)O)[C@@H](C)O` [Hp14-3(15-3)] (H-VKNWMTETLLVQNAN-OH; N-terminus and C-terminus assumed) was run?
The value was “++++ (>54% (++++))”.

For `CC(C)C[C@H](NC(=O)[C@H](CCC(=O)O)NC(=O)[C@H](CCCNC(=N)N)NC(=O)[C@H](Cc1ccccc1)NC(=O)[C@H](CC(=O)O)NC(=O)[C@@H](NC(=O)[C@H](CC(C)C)NC(=O)[C@H](CCCCN)NC(=O)[C@H](CCCNC(=N)N)NC(=O)[C@@H](N)Cc1c[nH]c2ccccc12)C(C)C)C(=O)N[C@@H](CC(N)=O)C(=O)N[C@@H](CCCCN)C(=O)N[C@@H](CCCNC(=N)N)C(=O)O` [HRT3-4], which “CyCD4: CD4+ T-cell cytolysin/cytotoxins” value [1] is on record?
Its value is “++++ (>54% (++++))”.

And the “CyCD4 (cytolysin and cytotoxin production of CD4+ T cells), frequency of responders” value [1]?
Its value is “++++ (>54% (++++))”.

What about the “CyCD8: CD8+ T-cell cytolysin/cytotoxins” value [2] of the same compound?
The value was “++++ (>54% (++++))”.

`CSCC[C@H](NC(=O)[C@H](Cc1c[nH]c2ccccc12)NC(=O)[C@H](CC(N)=O)NC(=O)[C@H](CCCCN)NC(=O)[C@@H](NC(=O)[C@H](CCC(=O)O)NC(=O)[C@H](CCC(N)=O)NC(=O)[C@H](CO)NC(=O)[C@H](C)N)C(C)C)C(=O)N[C@H](C(=O)N[C@@H](CCC(=O)O)C(=O)N[C@H](C(=O)N[C@@H](CC(C)C)C(=O)N[C@@H](CC(C)C)C(=O)N[C@H](C(=O)O)C(C)C)[C@@H](C)O)[C@@H](C)O` [Hp14-3 (15-2)] (H-ASQEVKNWMTETLLV-OH) was tested. Which “CyCD4: CD4+ T-cell cytolysin/cytotoxins” value [1] did it give?
The value was “++++ (>54% (++++))”.

What about the “CyCD8: CD8+ T-cell cytolysin/cytotoxins” value [2] of the same compound?
The value was “++++ (>54% (++++))”.

For `CC[C@H](C)[C@H](N)C(=O)N1CCC[C@H]1C(=O)N[C@H](C(=O)NCC(=O)N[C@@H](CCC(=O)O)C(=O)N[C@H](C(=O)N[C@@H](Cc1ccc(O)cc1)C(=O)N[C@@H](CCCCN)C(=O)N[C@@H](CCCNC(=N)N)C(=O)N[C@@H](Cc1c[nH]c2ccccc12)C(=O)N[C@H](C(=O)N[C@H](C(=O)N[C@@H](CC(C)C)C(=O)NCC(=O)O)[C@@H](C)CC)[C@@H](C)CC)[C@@H](C)CC)C(C)C` [Hp9-3(10-3)], which “CyCD4 (cytolysin and cytotoxin production of CD4+ T cells), frequency of responders” value [1] is on record?
The value was “+ (12.5%-25% (+))”.

How did the “CyCD4: CD4+ T-cell cytolysin/cytotoxins” value [1] turn out when `CC[C@H](C)[C@H](NC(=O)CN)C(=O)N[C@@H](CCCNC(=N)N)C(=O)N[C@@H](Cc1ccc(O)cc1)C(=O)N[C@@H](CCC(N)=O)C(=O)N[C@@H](Cc1ccc(O)cc1)C(=O)N[C@@H](CC(N)=O)C(=O)N[C@H](C(=O)N[C@@H](CC(C)C)C(=O)N1CCC[C@H]1C(=O)N[C@@H](CCC(N)=O)C(=O)NCC(=O)N[C@@H](Cc1c[nH]c2ccccc12)C(=O)N[C@@H](CCCCN)C(=O)NCC(=O)O)C(C)C` [HRT7-1] was run?
Its value is “− (0%-1.4% (−))”.

What about the “CyCD8: CD8+ T-cell cytolysin/cytotoxins” value [2] of the same compound?
The value was “− (0%-1.4% (−))”.

Which results are given for `CC[C@H](C)[C@H](NC(=O)[C@H](CCCCN)NC(=O)[C@@H](NC(=O)[C@@H](NC(=O)[C@H](CCCCN)NC(=O)[C@H](Cc1ccc(O)cc1)NC(=O)[C@H](CCCCN)NC(=O)[C@H](Cc1ccc(O)cc1)NC(=O)[C@H](CC(C)C)NC(=O)[C@H](CCC(=O)O)NC(=O)[C@H](CO)NC(=O)[C@H](CCCNC(=N)N)NC(=O)[C@H](Cc1c[nH]c2ccccc12)NC(=O)[C@H](CC(N)=O)NC(=O)[C@@H](N)CC(=O)O)C(C)C)C(C)C)C(=O)O` [HSU4] (H-DNWRSELYKYKVVKI-OH; N-terminus and C-terminus assumed)?
CyCD4: CD4+ T-cell cytolysin/cytotoxins (perforin, GrzA & B), frequency of responders [1]: − (0%-1.4% (−)); CyCD8: CD8+ T-cell cytolysin/cytotoxins (perforin, GrzA & B), frequency of responders [2]: + (12.5%-25% (+))
